Test results reported in publication PMC3479139, “Diverse Small Molecule Inhibitors of Human Apurinic/Apyrimidinic Endonuclease APE1 Identified from a Screen of a Large Public Collection” (PLoS ONE, 2012).
Where two headings read alike, the source gives them in different places.

What was measured:
E. coli Endo IV = biological target: T1, E. coli Endo IV (Escherichia coli, UniProt P0A6C1); assay: E. coli Endo IV profiling counterscreen; type: biochemical;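 further: selectivity counterscreen of candidate APE1 inhibitors against the bacterial endonuclease Endo IV, run in the same assay format as the primary APE1 high-throughput screen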
T1 construct: made in house
Excerpt: (§1) In order to screen out nonselective compounds, such as non-specific DNA binders and inhibitors of related enzymes, we used a miniaturized ThO DNA displacement assay and a counterscreen against the bacterial endonuclease E. coli Endo IV, respectively, following the previously published protocols [21].
To probe the selectivity of the candidate APE1 inhibitors, we tested them against E. coli EndoIV [36], employing the same assay as used in the HTS.

APE1 [1] = biological target: T2, APE1 (Homo sapiens, UniProt P27695); assay: Gel-based APE1 incision assay with fluorescence (TAMRA) detection; type: biochemical
T2 construct: made in house
T2 sequence (P27695 whole entry): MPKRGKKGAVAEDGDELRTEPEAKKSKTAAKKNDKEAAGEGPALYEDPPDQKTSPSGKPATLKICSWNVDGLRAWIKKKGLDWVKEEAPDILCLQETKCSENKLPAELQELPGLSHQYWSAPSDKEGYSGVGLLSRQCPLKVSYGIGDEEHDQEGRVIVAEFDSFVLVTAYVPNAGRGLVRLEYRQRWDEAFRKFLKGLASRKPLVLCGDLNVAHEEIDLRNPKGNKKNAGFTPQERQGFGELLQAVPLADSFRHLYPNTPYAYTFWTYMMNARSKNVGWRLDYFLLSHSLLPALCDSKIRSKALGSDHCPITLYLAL

APE1 [2] = biological target: T2, APE1; assay: Fluorogenic kinetic qHTS APE1 incision assay (primary screen and retest of cherrypicked samples); type: biochemical;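 further: purified APE1 cleaving a fluorophore/dark-quencher labelled 17-mer duplex DNA bearing a tetrahydrofuran AP site, fluorescence rise followed kinetically over the first 2 min, inhibition normalized to controls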
Experimental: All screening operations were performed on a fully integrated robotic system (Kalypsys, San Diego, CA) [28] with library plates screened proceeding from the lowest to the highest concentration to minimize compound carryover [26]. Vehicle-only plates, with DMSO being pin-transferred to the entire column 5–48 compound area, were included regularly throughout the screen in order to record any systematic shifts in assay signal. During the screen, reagent bottles were kept at 4°C and all liquid lines were covered with aluminum foil to minimize degradation.
Screening data were corrected and normalized, and concentration–effect relationships was derived using in-house developed algorithms [25].
To screen for inhibitors of APE1 incision activity, we employed a purified-enzyme biochemical assay with a model substrate featuring a red-shifted fluorescent reporter in combination with a dark non-emitting quencher. These moieties were incorporated as end labels onto a 17-mer double-stranded DNA fragment containing a centrally-located tetrahydrofuran AP site sugar mimetic, which serves as the APE1 cleavage site. Upon APE1-catalyzed strand scission immediately 5′ to the AP site analog, the shortened oligodeoxynucleotide carrying the fluorescent reporter spontaneously dissociates from the rest of the substrate, leading to an increase in fluorescence due to its spatial separation from the dark quencher (Figure 1A).
Using a high-speed whole-plate fluorescence imager, the assay data for the entire screen was conducted in kinetic mode, with the APE1 incision reaction being monitored over the initial linear time frame of 2 min (Figure 1B). Thus, any inhibition associated with each sample was computed from the alteration in fluorescence intensity over the time-course measurement period, after normalization against the appropriate controls (Figure 1B, inset).

APE1 [3] = biological target: T2, APE1; assay: Fluorescence polarization (FP) displacement assay of APE1 binding to AP-DNA probe; conditions: read-out: FP IC50;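 further: TAMRA 5′-labeled duplex DNA with THF abasic site (5 nM) and APE1 (20 nM), Mg2+-free buffer, 15 min at room temperature, inhibition seen as lowered polarization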
Experimental: Double-stranded oligodeoxynucleotide containing tetrahydrofuran (THF) abasic site labeled with TAMRA at the 5′-end was used as the labeled binding probe. Inhibition of APE1 binding to labeled probe was detected by a decrease in the fluorescence polarization (FP) of the fluorophore. Briefly, 4 µL mixture of 20 nM APE1 and 5 nM probe contained in the enzymatic assay buffer from which Mg^2+ was omitted, was dispensed into 1536-well Greiner black solid bottom plates. Compounds (23 nL) were transferred via pintool, and after a 15-minute incubation at room temperature, fluorescence polarization was measured in a ViewLux High-throughput CCD imager (480 nm excitation and 540 nm emission) to determine the degree of probe displacement caused by the test compounds.

HeLa cells [4] = assay: MMS potentiation assay (CellTiter Glo viability); type: cell-based, human; design: key: N.A., no activity observed; P, positive; I, inconclusive; N.T., not tested; conditions: for MMS Assay: potentiation of the genotoxic effect of methylmethane sulfonate
Experimental: HeLa cells were plated at 6000 cells/well in DMEM culture medium containing 10% FBS into white solid bottom 384-well cell culture plates. The plates were incubated at 37°C overnight for cell attachment, followed by media replacement. The fresh medium contained serial dilutions of compounds of interest in the presence (0.4 mM final) or absence of MMS. The plates were incubated for 24 h at 37°C. Cell viability was determined by luminescence detection after an addition of 15 µL of CellTiter Glo reagent (Promega, Madison, WI). Percent viability was calculated for each concentration of compound tested in duplicate by relating the corresponding luminescence to that of a negative DMSO vehicle control. MMS potentiation trends were defined as follows: negative (-), if cell viability in the compound-plus-MMS treatment was the same as that of the DMSO-plus-MMS control (overlapping dose-response curves); inconclusive (I), if the shift in the cell viability dose-response upon MMS inclusion relative to compound-alone was less than 30%; and positive (P), if the difference between the compound-plus-MMS and compound-alone curves was at least 30%, and maintained within at least a two-fold compound concentration span.
To examine the biological prospects of the top compounds, we tested their ability to inhibit APE1 DNA repair activity by assessing enhancement of MMS toxicity in mammalian cells. MMS creates methylated-base damage to genomic DNA, which, when excised by an alkylpurine DNA glycosylase, results in a high number of cytotoxic AP sites. We compared the viability of HeLa cells exposed to a dilution series of inhibitor alone to a combination of a fixed MMS concentration with the same dilution series of inhibitor by using a standard CellTiter Glo luminescence assay. This technique measures the number of viable cells in culture based on quantitation of the ATP present, which signals the presence of metabolically active cells. The assay was further optimized for 384-well plates, allowing a high-throughput testing of multiple hits at multiple concentrations, a scope of investigation previously impossible due to the very low throughput of the traditionally applied colony formation assay.
From the 223 compounds found positive in the gel-based APE1 assays, exclusion of the most promiscuous hits, that is, those that were both DNA binders and EndoIV-inhibitory, yielded a set of 170 compounds (Figure 3). This shortened group of hits was tested in the cell-based potentiation assay for their ability to dose-dependently enhance sensitivity of HeLa cells to the alkylating agent MMS.

[5] = biological target: double-stranded 17-mer DNA fragment; assay: ThO (Thiazole Orange) DNA displacement assay; type: binding; conditions: read-out: ThO-DNA binding IC50;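 further: miniaturized displacement of the intercalating dye from unlabeled duplex DNA, used to flag nonspecific DNA binders, chiefly intercalators, groove binders may be missed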
Excerpt: The double-stranded 17-mer DNA fragment used in the ThO DNA binding assay was of the same sequence as the fluorogenic HTS substrate but carried no dye labels.
as §1
To detect screening hits that inhibit APE1 activity through non-specific DNA interactions, we employed a previously established miniaturized ThO dye displacement assay [21]. […] We note that the ThO assay reports primarily on DNA binders acting through intercalation, while potentially missing other types of DNA binders, such as those acting through the minor groove.

APE1 [6] = biological target: T2, APE1; assay: Gel-based radiotracer (32P) APE1 incision assay; type: biochemical; design: concentration or dose not given beside the values; conditions: percent incision shown; entries 1-112;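 further: APE1 incision reactions ran 5 min at 37 °C, with cleaved product and intact substrate resolved electrophoretically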
HeLa cells [7] = assay: AP site measurement in genomic DNA; type: cell-based, human; conditions: 275 µM MMS plus inhibitor; for AP site levels, combination treatment versus MMS-alone: 24 h, initial test (Figure 8)
Experimental: HeLa cells at 80% confluency (6×10^5 cells) were subjected to the following treatments in a 6-well plate for 24 hours at 37°C: 1) DMSO alone, 2) 275 µM MMS, 3) APE1 inhibitors dissolved in DMSO (5–20 µM final compound concentration), and 4) the inhibitors as in treatment 3 in combination with 275 µM MMS. Cells were then harvested and processed using a Qiagen Genomic DNA isolation kit (Germantown, MD). After DNA quantitation, AP sites were measured using the DNA Damage Quantification kit from Dojindo Molecular Technologies (Rockville, MD).
As stated above, the application of the genotoxic agent MMS results in an increase in the level of AP sites within the genome. An effective APE1-targeted inhibitor applied under the conditions of increased genotoxic stress is expected to interfere with the repair of AP sites, while ideally having no effect on the AP site levels when applied as a single agent. Thus, the net effect of treating cells with a combination of MMS and inhibitor would be an increase in the number of AP site lesions. To determine the effect on AP site accumulation caused by treatment with MMS in combination with an APE1 inhibitor, as compared to treatment with MMS or inhibitor alone, we measured AP site levels in the chromosomal DNA from HeLa cells using an aldehyde-reactive probe-based colorimetric assay. The concentrations of MMS and inhibitor (275 µM for MMS and between […] for the inhibitor, respectively) were selected to fall below the onset of cytotoxicity for each agent based on the analysis of the MMS potentiation data shown in Figure 5.

[8] = estimated IC50, fluorophore detection, entries 113-223, read-out: F-PAGE Assay IC50
[9] = initial quantitative high-throughput screen, read-out: APE1 qHTS IC50
[10] = retest of cherrypicked sample, read-out: APE1 Retest IC50
[11] = entries 113-223: fluorophore detection, estimated IC50, read-out: Gel-based electrophoretic separation assay with fluorophore detection, estimated IC50 (column headed Radiotracer Assay (%Activity))

Row | Structure (SMILES) | IC50 (E. coli Endo IV; read-out: EndoIV IC50) [µM] | IC50 (APE1 [1]; [8]) [µM] | IC50 (APE1 [2]; [9]) [µM] | IC50 (APE1 [2]; [10]) [µM] | IC50 (APE1 [3]) [µM] | MMS Assay (HeLa cells [4]) | IC50 [5] [µM] | IC50 (E. coli Endo IV) [µM] | Radiotracer Assay (%Activity) (APE1 [6]) [%] | AP site levels, combination treatment versus MMS-alone (HeLa cells [7]) | IC50 (APE1 [1]; [11]) [µM] | MMS Assay: potentiation of the genotoxic effect of methylmethane sulfonate (HeLa cells [4]) | IC50 (APE1 [2]; initial qHTS, 7-point titration, read-out: qHTS, IC50 obtained in the initial quantitative high-throughput screen) [µM] | AP site levels, combination versus MMS-alone, repeat testing (HeLa cells [7]; repeat test (Figure S1))
1 | O=C1COc2ccc(C(=O)COC(=O)/C=C/c3ccc(Br)o3)cc2N1 [MLS001142042] | > 57 | 2.2 | 4.7 | 14.5 | > 57 | I | > 57 | – | – | – | – | – | – | –
2 | COc1cc2c(ccc3cc(OC)c(OC)c(O)c32)cc1O [MLS000863573] | – | – | 0.7 | 0.6 | 12.6 | P | 11.2 | 8.9 | 4 | no statistical significance | – | – | – | –
3 | Cc1cccn2c(=O)c3cc(C(=O)NCc4ccco4)c(=N)n(C4CCCCC4)c3nc12 [MLS001217741] | > 57 | – | 16.8 | 12.9 | > 57 | – | > 57 | – | – | – | 22.4 | P | – | –
4 | CCc1cc(CNC(=O)c2ccc(OC3CCN(CCc4ccccc4)CC3)cc2)on1 [MLS001105846] | > 57 | 4.5 | 11.9 | 6.5 | 32.4 | P | > 57 | – | – | – | – | – | – | –
5 | COc1ccc(CCn2c(O)cc3nn(-c4nc5ccccc5s4)c(=O)c-3c2C)cc1 [MLS000763226] | > 57 | – | 31.6 | 15.8 | > 57 | I | 10 | – | 20 | – | – | – | – | –
6 | COc1ccc(Cc2nnc(NC(=O)Cc3cccs3)s2)cc1OC [MLS000115025] | > 57 | – | 28.2 | 2 | > 57 | P | > 57 | – | 48 | obscured by large standard deviations | – | – | 28.1 | support the initially-observed enhancements
7 | CC1CCc2c(sc(NC(=O)/C=C/c3cccs3)c2C(=O)O)C1 (centres unmarked) [MLS000974674] | > 57 | 6.3 | 11.9 | 45.7 | > 57 | P | 36.3 | – | – | – | – | – | – | –
8 | O=C1/C(=C/C=C/c2ccco2)SC(=S)N1NS(=O)(=O)c1ccccc1 [MLS000778639] | > 57 | – | 2.5 | 3.5 | > 57 | I | > 57 | – | 6 | – | – | – | – | –
9 | O=C(O)c1ccccc1-c1ccc(/C=c2\sc3nc4cc(Br)cnc4n3c2=O)o1 [MLS000107874] | > 57 | – | 22.4 | 8.9 | 17.8 | I | > 57 | – | 11 | – | – | – | – | –
10 | O=C(O[C@@H]1OC2COC(=O)c3cc(O)c(O)c(O)c3-c3c(cc(O)c(O)c3O)C(=O)O[C@@H]([C@H]1O)[C@@H]2O)c1cc(O)c(O)c(O)c1 [MLS000563483] | > 57 | – | 0.07 | 0.05 | > 57 | I | > 57 | – | 16 | – | – | – | – | –
11 | N#C/C(=C\c1ccc(O)c(O)c1)C(=O)Nc1cccc2ncccc12 [MLS001173932] | > 57 | 0.6 | 3 | 5.1 | > 57 | I | 2 | – | – | – | – | – | – | –
12 | COc1ccc2c(c1)c(=O)oc1cc(OCC(=O)N3CCC(C)CC3)ccc12 [MLS000088142] | > 57 | – | 15.6 | 5 | 14.1 | I | > 57 | – | 29 | – | – | – | – | –
13 | Cn1cccc1/C=C1\C(=O)NC(=O)N(Cc2ccco2)C1=O [MLS000677191] | > 57 | – | 14.1 | 4.5 | > 57 | I | > 57 | – | 5 | – | – | – | – | –
14 | O=C1CC(=O)N(Cc2ccco2)C(=S)N1 [MLS000535286] | > 57 | – | 11.2 | 12.6 | > 57 | I | > 57 | – | 28 | – | – | – | – | –
15 | CC(C(=O)O)N1C(=O)/C(=C/C=C/c2ccco2)SC1=S (centres unmarked) [MLS000551724] | > 57 | – | 2.8 | 0.9 | 12.6 | I | > 57 | – | 9 | – | – | – | – | –
16 | COc1ccc2c(c1)c(=O)oc1cc(OCC(=O)N3CCc4ccccc4C3)ccc12 [MLS000594187] | > 57 | – | 10 | 3.91 | > 57 | P | > 57 | – | 51 | no statistical significance | – | – | – | –
17 | O=C(O)C1Nc2ccc(Br)cc2C2C=CCC12 (centres unmarked) [MLS001209038] | > 57 | 6.3 | 13.4 | 18.2 | > 57 | I | 25.7 | – | – | – | – | – | – | –
18 | COc1c(-c2ccc(O)cc2)oc2cc(O)cc(O)c2c1=O [MLS000877008] | > 57 | – | 1.1 | 2.8 | > 57 | I | > 57 | – | 43 | – | – | – | – | –
19 | COc1ccc(CN2C(=O)NC(=O)/C(=C\c3ccco3)C2=O)cc1 [MLS000723827] | > 57 | – | 22.4 | 14.1 | > 57 | I | > 57 | – | 18 | – | – | – | – | –
20 | COc1ccc(C(=O)Nc2ccnn2C2CCN(Cc3ccc4nonc4c3)CC2)cc1 [MLS001090278] | > 57 | – | 5.3 | 10.2 | > 57 | – | > 57 | – | – | – | 10 | I | – | –
21 | CC(=O)Oc1cc(C(=O)OCC(=O)N2CCc3ccccc3C2)cc(OC(C)=O)c1OC(C)=O [MLS002252117] | > 57 | 4.5 | 5.3 | 11.5 | > 57 | I | > 57 | – | – | – | – | – | – | –
